Here are results for three molecules from paper PMC9960696, “Functional Expression of Recombinant Candida auris Proteins in Saccharomyces cerevisiae Enables Azole Susceptibility Evaluation and Drug Discovery” (Journal of Fungi, 2023).

This assay addresses T1, CauErg11-6×His (Candidozyma auris, UniProt A0A2H1A309).
T1 construct: gene B9J08_03698; full-length, C-terminal GGR linker and 6xHis kept; expressed in S. cerevisiae ADΔΔ (Y2767, native ERG11 deleted); DM-solubilised, Ni-NTA partially purified; mutant Y132F in strain Y2768
In words: type II difference spectra titration. It counts as binding. The text has this: type II difference spectra titration on CauErg11-6×His

T1 sequence (A0A2H1A309 entry or part of it): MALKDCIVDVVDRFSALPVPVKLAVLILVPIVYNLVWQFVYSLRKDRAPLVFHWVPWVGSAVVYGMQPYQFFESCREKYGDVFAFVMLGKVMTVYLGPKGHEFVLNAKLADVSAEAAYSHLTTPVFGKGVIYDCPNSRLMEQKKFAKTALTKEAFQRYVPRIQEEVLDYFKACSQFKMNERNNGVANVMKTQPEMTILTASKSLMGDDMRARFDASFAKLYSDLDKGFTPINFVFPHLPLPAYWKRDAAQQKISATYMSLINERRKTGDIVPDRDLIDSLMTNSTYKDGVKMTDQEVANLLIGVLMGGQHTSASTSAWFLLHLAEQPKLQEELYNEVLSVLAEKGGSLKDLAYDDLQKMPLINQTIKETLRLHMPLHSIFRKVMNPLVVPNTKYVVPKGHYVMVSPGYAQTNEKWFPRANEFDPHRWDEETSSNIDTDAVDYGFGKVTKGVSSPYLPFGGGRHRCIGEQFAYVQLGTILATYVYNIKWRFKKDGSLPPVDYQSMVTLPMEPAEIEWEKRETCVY

Broadly, the Kd is the constant that tells how readily two partners part at equilibrium. The low end stands for tighter binding, the high end for weaker binding. Molecule `CC[C@@H]([C@H](C)O)n1ncn(-c2ccc(N3CCN(c4ccc(OC[C@@H]5CO[C@@](Cn6cncn6)(c6ccc(F)cc6F)C5)cc4)CC3)cc2)c1=O` [POS, Posaconazole] gave a Kd of 340 nM.

Consider `C[C@@H](c1nc(-c2ccc(C#N)cc2)cs1)[C@](O)(Cn1cncn1)c1cc(F)ccc1F` [ISA, Isavuconazole], for which the Kd worked out at 200 nM.

As to `C[C@@H](c1ncncc1F)[C@](O)(Cn1cncn1)c1ccc(F)cc1F` [VRC, Voriconazole], the Kd was determined as 740 nM.
